According to ChEMBL document CHEMBL4177627, “Discovery and evaluation of Cav3.1-selective T-type calcium channel blockers” (Bioorg Med Chem Lett, 2017):
In brackets after ≈: the same amount, converted by molar mass.

Tests used:
[1] = Intrinsic clearance in rat liver microsomes assessed per mg protein; format: ADME, microsome; conditions: read-out: CLH
[2] = Plasma concentration in Wistar rat at 100 mg/kg, po measured after 1 hr; format: ADME, organism-based
[3] = Solubility of the compound in aqueous medium at pH 7; format: physicochemical
[4] = Drug level in Wistar rat brain at 100 mg/kg, po measured after 1 hr; format: ADME, organism-based; conditions: read-out: Drug uptake
[5] = Unbound plasma concentration in Wistar rat at 100 mg/kg, po measured after 1 hr; format: ADME, organism-based; conditions: in vivo

SMILES	microsomal CLint [1] [µL/min/mg]	concentration at 1 h [2] [nM]	solubility ([3]; aqueous medium, read-out: solubility) [µg/mL]	concentration at 1 h [4] [nM]	Cp(f) [5] [nM]	solubility ([3]; buffer)
CCNCCc1c(C(=O)NCc2ccccc2OCC(F)(F)F)nn(-c2ccccc2)c1-c1ccccc1	377	810	429 (≈ 821 µM)	80	4.9	–
O=C(NCc1ccccc1OCC(F)(F)F)c1nn(-c2ccccc2)c(-c2ccccc2)c1CCNC1CC1	–	–	–	–	–	Soluble
CCN(CC)CCc1c(C(=O)NCc2ccccc2OCC(F)(F)F)nn(-c2ccccc2)c1-c1ccccc1	–	–	–	–	–	Soluble
